# In US12617790B2, “Mitragynine analogs and uses thereof” (Memorial Sloan-Kettering Cancer Center, priority 2015, dated 2026):
# Where two headings read alike, the source gives them in different places.
# How the values were obtained:
# MOR-1 [1] = target: T1, MOR-1 (Mus musculus, UniProt P42866); test: [35S]GTPγS functional assay, MOR-1 transfected cell membranes; assay type: biochemical; set-up: Emax: dose or concentration left out as unconfirmed; settings: for Emax: read-out: MOR-1 Emax (%)
# T1 construct: expressed in transfected cells; host or cells: CHO
# CD1 mice [2] = test: Radiant heat tail flick analgesia, icv, CD1 mice; assay type: in vivo, mouse; settings: ED50, cumulative dose-response, tail flick 15 min after icv dose
# CD1 mice [3] = test: Radiant heat tail flick analgesia, sc, CD1 mice; assay type: in vivo; settings: Mus musculus, 0.25 h, ED50, cumulative dose-response, tail flick 15 min after sc dose
# mice [4] = test: Antisense oligodeoxynucleotide downregulation, tail flick antinociception; assay type: in vivo, mouse; settings: antisense icv days 1, 3, 5, test day 6; VM1501 1.0 mg/kg sc, VM1502 1.5 mg/kg sc
# CD1 mice [5] = test: Reversal of tail flick antinociception by selective opioid antagonists, CD1 mice; assay type: in vivo, mouse; settings: VM1501 1.0 mg/kg sc, VM1502 1.5 mg/kg sc
# KOR-1 [6] = target: T2, KOR-1 (Mus musculus, UniProt P33534); test: Competition binding against 125I-IBNtxA in KOR-1/CHO membranes
# T2 construct: expressed in transfected cells; host or cells: CHO
# 129/Sv mice = test: Tail flick antinociception icv in 129/Sv mice (wild type and Exon11 knockout); assay type: in vivo, mouse; settings: 15 min
# DOR-1 [7] = target: T3, DOR-1 (Mus musculus, UniProt P32300); test: Competition binding against 125I-IBNtxA in DOR-1/CHO membranes
# T3 construct: expressed in transfected cells; host or cells: CHO
# CD1 mice [8] = test: Respiratory depression assessment (MouseOx pulse oximeter breath rate)
# KOR-1 [9] = target: T2, KOR-1; test: [35S]GTPγS functional assay, KOR-1 transfected cell membranes; assay type: biochemical
# MOR-1 [10] = target: T1, MOR-1; test: Competition binding against 125I-IBNtxA in MOR-1/CHO membranes
# mice [11] = test: Gastrointestinal motility assay (charcoal meal transit); settings: 30 min
# rats = test: Tail flick analgesia, sc, rats; assay type: in vivo; settings: Rattus norvegicus, 0.25 h, rats (n=3), 15 mins, cumulative dosing
# mice [12] = test: Physical dependence, naloxone-precipitated jumping; settings: VM1502 2x daily 2x ED50, challenge on days 5, 22, 29; 15 min count
# CD1 male mice [13] = test: Tail flick antinociception, oral by gavage, CD1 male mice; assay type: in vivo; settings: Mus musculus, orally by gavage
# CD1 male mice [14] = test: Tolerance study, chronic twice daily dosing, tail flick; settings: for ED50: Mus musculus, sc
# mice [15] = test: Conditioned place preference / aversion; settings: VM1502 1.3 and 3.2 mg/kg/d, 2 days conditioning
# DOR-1 [16] = target: T3, DOR-1; test: [35S]GTPγS functional assay, DOR-1 transfected cell membranes; assay type: biochemical
# [17] = FIG. 8C: VM1501 2.5 mg/kg sc (5x ED50), morphine 10 mg/kg, 50 min post-injection
# [18] = 0 h, read-out: analgesic ED50, naïve (day 0)
# [19] = FIG. 12D, 2x antinociceptive ED50: VM1502 1.2 mg/kg sc, morphine 5 mg/kg
# [20] = FIG. 12D, 5x antinociceptive ED50: VM1502 3 mg/kg sc, morphine 10 mg/kg
# [21] = FIG. 14, 5x antinociceptive ED50: VM1502 3.75 mg/kg sc, VM1512 5.0 mg/kg sc, morphine 10 mg/kg
# [22] = agonist stimulation of [35S]GTPγS binding, read-out: MOR-1 EC50
# [23] = 125I-IBNtxA (0.1 nM), CHO membranes, cloned mouse receptor, read-out: Affinity (Ki nM) KOR-1
# [24] = 125I-IBNtxA (0.1 nM), CHO membranes, cloned mouse receptor, read-out: Affinity (Ki nM) DOR-1
# [25] = antagonism of 100 nM U50,488H, read-out: KOR-1 IC50
# [26] = antagonism of 100 nM DPDPE, read-out: DOR-1 IC50
smiles,measurement,setting,value
"CC[C@@H]1CN2CCc3c([nH]c4cccc(OC)c34)[C@@H]2C[C@@H]1/C(=C\OC)C(=O)OC [VM1500, (E)-Methyl-2-((2S,3S,12bS)-3-ethyl-8-methoxy-1,2,3,4,6,7,12,12b-octahydroindolo[2,3-a]quinolizin-2-yl)-3-methoxyacrylate]",Emax,MOR-1 [1],65%
same,Analgesia icv,CD1 mice [2],42 µg
same,ED50,CD1 mice [3],166 mg/kg
"CC[C@@H]1CN2CC[C@@]3(O)C(=Nc4cccc(OC)c43)C2C[C@@H]1/C(=C\OC)C(=O)OC (stereo partly drawn) [VM1501, (E)-methyl-2-((2S,3S,7aS)-3-ethyl-7a-hydroxy-8-methoxy-1,2,3,4,6,7,7a,12b-octahydroindolo[2,3-a]quinolizin-2-yl)-3-methoxyacrylate]",analgesic response after antisense downregulation,mice [4],diminished in MOR-1-downregulated mice
same,antinociception after NTI (0.5 mg/kg sc) and norBNI (10 mg/kg sc),CD1 mice [5],insensitive to NTI and norBNI
same,antinociception after β-FNA (40 mg/kg sc),CD1 mice [5],antagonized by β-FNA
same,EC50,MOR-1 [1],53 nM
same,Ki,KOR-1 [6],132 nM
same,"ED50 antinociception icv, Exon11 knockout",129/Sv mice; 129/Sv Exon11 knockout mice,0.83 µg
same,"ED50 antinociception icv, wild type",129/Sv mice; 129/Sv wild type mice,0.022 µg
same,Ki,DOR-1 [7],91 nM
same,respiratory rate,CD1 mice [8]; [17],did not depress respiratory rate
same,IC50,KOR-1 [9],2520 nM
same,Ki,MOR-1 [10],37 nM
same,gastrointestinal transit,mice [11]; FIG. 8D: VM1501 0.5 and 1 mg/kg,did not lower transit significantly compared with saline
same,Analgesia icv,CD1 mice [2],0.06 µg
same,ED50,CD1 mice [3],0.46 mg/kg
"CC[C@@H]1CN2CC[C@]3(Nc4cccc(OC)c4C3=O)C2C[C@@H]1/C(=C\OC)C(=O)OC (stereo partly drawn) [VM1502, (E)-methyl 2-((1'S,6'S,7'S)-6′-ethyl-4-methoxy-3-oxo-3′,5′,6′,7′,8′,8a′-hexahydro-2′H-spiro[indoline-2,1′-indolizine]-7′-yl)-3-methoxyacrylate]",analgesic response after antisense downregulation,mice [4],only affected in MOR-1-downregulated mice
same,ED50,rats,1.4 mg/kg
same,antinociception after NTI (0.5 mg/kg sc) and norBNI (10 mg/kg sc),CD1 mice [5],insensitive to NTI and norBNI
same,antinociception after β-FNA (40 mg/kg sc),CD1 mice [5],antagonized by β-FNA
same,physical dependence: number of jumps after naloxone (1 mg/kg),mice [12],not significantly greater than that of mice treated with saline
same,EC50,MOR-1 [1],1.7 nM
same,ED50,CD1 male mice [13],7.5 mg/kg
same,Ki,KOR-1 [6],24 nM
same,ED50,CD1 male mice [14]; [18],0.63 mg/kg
same,ED50,"CD1 male mice [14]; 120 h, read-out: analgesic ED50, day 5",1.1 mg/kg
same,ED50,"CD1 male mice [14]; 288 h, read-out: analgesic ED50, day 12",1.8 mg/kg
same,ED50,"CD1 male mice [14]; 528 h, read-out: analgesic ED50, day 22",2 mg/kg
same,ED50,"CD1 male mice [14]; 696 h, read-out: analgesic ED50, day 29",4.5 mg/kg
same,onset of analgesic tolerance,CD1 male mice [14]; dosed 2x daily with 2x antinociceptive ED50,very slow onset of tolerance compared with morphine
same,Ki,DOR-1 [7],3 nM
same,respiratory rate,CD1 mice [8]; [19],did not depress respiratory rate
same,respiratory rate,CD1 mice [8]; [20],showed signs of respiratory depression albeit significantly less than the equianalgesic dose of morphine
same,respiratory rate,CD1 mice [8]; [21],showed signs of respiratory depression albeit significantly less than the equianalgesic dose of morphine
same,conditioned place preference or aversion,mice [15],did not produce conditioned place preference or aversion
same,IC50,KOR-1 [9],31 nM
same,IC50,DOR-1 [16],61 nM
same,Ki,MOR-1 [10],0.8 nM
same,gastrointestinal transit,mice [11]; FIG. 12C: VM1502 1.5 and 4 mg/kg,lowered transit significantly compared with saline (P<0.05) but less than morphine at both doses
same,Analgesia icv,CD1 mice [2],0.38 µg
same,ED50,CD1 mice [3],0.76 mg/kg
"CC[C@@H]1CN2CC[C@]3(Nc4ccccc4C3=O)C2C[C@@H]1/C(=C\OC)C(=O)OC (stereo partly drawn) [VM1508, (E)-methyl 2-((1'S,6'S,7'S)-6′-ethyl-3-oxo-3′,5′,6′,7′,8′,8a′-hexahydro-2′H-spiro[indoline-2,1′-indolizine]-7′-yl)-3-methoxyacrylate]",EC50,MOR-1 [1]; [22],1.4 nM
same,Emax,MOR-1 [1],116%
same,Ki,KOR-1 [6]; [23],19 nM
same,Ki,DOR-1 [7]; [24],2.9 nM
same,IC50,KOR-1 [9]; [25],252 nM
same,IC50,DOR-1 [16]; [26],193 nM
same,Ki,MOR-1 [10],0.46 nM
same,ED50,CD1 mice [3],0.24 mg/kg
"CC[C@@H]1CN2CC[C@]3(Nc4cccc(C#N)c4C3=O)C2C[C@@H]1/C(=C\OC)C(=O)OC (stereo partly drawn) [VM1509, (E)-methyl 2-((1'S,6'S,7'S)-4-cyano-6′-ethyl-3-oxo-3′,5′,6′,7′,8′,8a′-hexahydro-2′H-spiro[indoline-2,1′-indolizine]-7′-yl)-3-methoxyacrylate]",EC50,MOR-1 [1]; [22],0.7 nM
same,Emax,MOR-1 [1],122%
same,Ki,KOR-1 [6]; [23],47 nM
same,Ki,DOR-1 [7]; [24],2.4 nM
same,IC50,KOR-1 [9]; [25],721 nM
same,IC50,DOR-1 [16]; [26],73 nM
same,Ki,MOR-1 [10],0.5 nM
same,ED50,CD1 mice [3],0.32 mg/kg
"CC[C@@H]1CN2CC[C@]3(Nc4cccc(-c5ccccc5)c4C3=O)C2C[C@@H]1/C(=C\OC)C(=O)OC (stereo partly drawn) [VM1511, (E)-methyl 2-((1'S,6'S,7'S)-6′-ethyl-3-oxo-4-phenyl-3′,5′,6′,7′,8′,8a′-hexahydro-2′H-spiro[indoline-2,1′-indolizine]-7′-yl)-3-methoxyacrylate]",EC50,MOR-1 [1]; [22],1.4 nM
same,Emax,MOR-1 [1],123%
same,Ki,KOR-1 [6]; [23],51 nM
same,Ki,DOR-1 [7]; [24],0.8 nM
same,IC50,KOR-1 [9]; [25],171 nM
same,EC50,DOR-1 [16]; agonist stimulation of [35S]GTPγS binding,0.83 nM
same,Emax,"DOR-1 [16]; percent maximal stimulation relative to DPDPE, read-out: DOR-1 Emax (value in parentheses after EC50)",89%
same,Ki,MOR-1 [10],0.91 nM
same,ED50,CD1 mice [3],1 mg/kg
"CC[C@@H]1CN2CC[C@]3(Nc4cccc(-c5ccoc5)c4C3=O)C2C[C@@H]1/C(=C\OC)C(=O)OC (stereo partly drawn) [VM1512, (E)-methyl 2-((1'S,6'S,7'S)-6′-ethyl-4-(furan-3-yl)-3-oxo-3′,5′,6′,7′,8′,8a′-hexahydro-2′H-spiro[indoline-2,1′-indolizine]-7′-yl)-3-methoxyacrylate]",EC50,MOR-1 [1]; [22],1.5 nM
same,Ki,KOR-1 [6]; [23],39 nM
same,Ki,DOR-1 [7]; [24],1.5 nM
same,respiratory rate,CD1 mice [8]; [21],showed no signs respiratory depression
same,IC50,KOR-1 [9]; [25],202 nM
same,IC50,DOR-1 [16]; [26],39 nM
same,Ki,MOR-1 [10],0.94 nM
same,ED50,CD1 mice [3],1.1 mg/kg
"CC[C@@H]1CN2CC[C@@]3(O)C(=Nc4ccccc43)[C@@H]2C[C@@H]1/C(=C\OC)C(=O)OC [VM1522, Methyl (E)-2-((2S,3S,7aS,12bS)-3-ethyl-7a-hydroxy-1,2,3,4,6,7,7a,12b-octahydroindolo[2,3-a]quinolizin-2-yl)-3-methoxyacrylate]",EC50,MOR-1 [1]; [22],34 nM
same,Emax,MOR-1 [1],116%
same,Ki,KOR-1 [6]; [23],781 nM
same,Ki,DOR-1 [7]; [24],147 nM
same,Ki,MOR-1 [10],23 nM
same,Analgesia icv,CD1 mice [2],0.1 µg
"CC[C@@H]1CN2CCc3c([nH]c4cccc(O)c34)[C@@H]2C[C@@H]1/C(=C\OC)C(=O)OC [VM1532, Methyl (E)-2-((2S,3S,12bS)-3-ethyl-8-hydroxy-1,2,3,4,6,7,12,12b-octahydroindolo[2,3-a]quinolizin-2-yl)-3-methoxyacrylate]",EC50,MOR-1 [1]; [22],422 nM
same,Emax,MOR-1 [1],62%
same,Ki,KOR-1 [6]; [23],769 nM
same,Ki,DOR-1 [7]; [24],532 nM
same,Ki,MOR-1 [10],207 nM
same,Analgesia icv,CD1 mice [2],9 µg
"CC[C@@H]1CN2CCc3c([nH]c4ccccc34)[C@@H]2C[C@@H]1/C(=C\OC)C(=O)OC [VM1540, Methyl (E)-2-((2S,3S,12bS)-3-ethyl-1,2,3,4,6,7,12,12b-octahydroindolo[2,3-a]quinolizin-2-yl)-3-methoxyacrylate]",Emax,MOR-1 [1],74%
same,Analgesia icv,CD1 mice [2],0.1 µg
"CN1CC[C@]23c4c5ccc(O)c4O[C@H]2[C@@H](O)C=C[C@H]3[C@H]1C5 [morphine, reference compound]",ED50,CD1 male mice [14]; [18],2 mg/kg
same,respiratory rate,CD1 mice [8]; [17],caused respiratory depression
same,respiratory rate,CD1 mice [8]; [19],caused respiratory depression
same,respiratory rate,CD1 mice [8]; [20],caused respiratory depression
same,respiratory rate,CD1 mice [8]; [21],caused respiratory depression
same,Analgesia icv,CD1 mice [2],0.53 µg
same,ED50,CD1 mice [3],4.6 mg/kg
